According to ChEMBL document CHEMBL1130299, “Time-dependent inhibition of neuronal nitric oxide synthase by N-propargylguanidine” (Bioorg Med Chem Lett, 1997):

System: Nitric oxide synthase 1 (Bos taurus)
Assay: Inactivation constant for Neuronal nitric oxide synthase (nNOS) from bovine brain

K inact: 0.39 min⁻¹
SMILES: C#CCNC(=N)N
